According to patent publication US12139464B2, “Simplified structural mimetics of AIPS as quorum sensing inhibitors” (Wisconsin Alumni Research Foundation, priority 2016, dated 2024):
“Also recorded” adds a separate entry of the source. Where two headings read alike, the source gives them in different places. Positions of bridges follow the written chain, without caps; N, C: chain ends. Non-standard residues stand in square brackets, D forms with d. Residues, ends and D or L forms follow the SMILES beside them. Phe(3-Cl) = N[C@@H](Cc1cccc(Cl)c1)C(=O)O; Phe(4-Cl) = N[C@@H](Cc1ccc(Cl)cc1)C(=O)O; Phe(3-F) = N[C@@H](Cc1cccc(F)c1)C(=O)O; Cha = N[C@@H](CC1CCCCC1)C(=O)O; AEEA = NCCOCCOCC(=O)O; Dap = NC[CH](N)C(=O)O; Aoc = NCCCCCCCC(=O)O

Assays:
[1] = target: S. aureus AgrC in group-I (Staphylococcus aureus, UniProt A0A0H2XKA3); experiment: AgrC inhibition YFP reporter gene assay, S. aureus group-I (AH1677); format: cell-based; conditions: for AgrC activity, preliminary screening: 10 μM where stated, YFP fluorescence relative to 1% DMSO control
Description: (§1) Reporter Gene Assays: The peptidomimetics were assayed for AgrC I-IV inhibition using the four YFP reporter strains listed in Table 1. Peptide stock solutions were diluted with DMSO in serial dilutions, and 2 μL of the diluted solution was added to each of the wells in a black, clear-bottom 96-well microtiter plate (Costar). An overnight culture of S. aureus YFP strain (Table 1) was diluted 1:50 with fresh BHI (pH 7.35). A […] of diluted culture was added to each well of the microtiter plate containing peptide (resulting in a 1% DMSO solution). Plates were incubated at 37° C. with shaking at 200 rpm for 24 h. Fluorescence (excitation 500 nm/emission 540 nm) and optical density at 600 nm (OD600) of each well were then recorded using a BioTek Synergy 2 plate reader. […] Full dose response curves are provided in Figures S3A-D, S4A-D, S5A-D, S6A-D and S7A-F.
(§2) A first compound library of AIP mimetics was screened for AgrC modulatory activity in all four groups of S. aureus using strains containing yfp reporter. These strains are summarized in Table 1, and include the multidrug-resistant strain USA300 LAC.[17] In these S. aureus reporters, binding of the native AIP to AgrC activates YFP production and can be measured using fluorescence. Thus, compounds capable of inhibiting native AIP binding produce a reduction in fluorescence. Preliminary compound screening was performed at 10 μM in each strain; the full results of preliminary screening are shown in FIGS. 4A-4D. Key findings from these initial screens are summarized here. To simplify the discussion, the full library will be described as three smaller sub-libraries. In the first sub-library (termed nxLX), there is a linker with n=x methylenes, residue 3 is Leu, and residue 4 (X) is Leu, Ile, or Phe (FIG. 2A). The second and third sub-libraries (nxIX and nxFX) are identical to the first sub-library except that there is an Ile or Phe at residue 3, respectively.

[2] = target: S. aureus AgrC in group-II (Staphylococcus aureus, UniProt O33587); experiment: AgrC inhibition YFP reporter gene assay, S. aureus group-II (AH430); format: cell-based; conditions: for AgrC activity, preliminary screening: 10 μM where stated, YFP fluorescence relative to 1% DMSO control
Description: as §1, §2

[3] = target: S. aureus AgrC in group-III (Staphylococcus aureus, UniProt O33590); experiment: AgrC inhibition YFP reporter gene assay, S. aureus group-III (AH1747); format: cell-based; conditions: for AgrC activity, preliminary screening: 10 μM where stated, YFP fluorescence relative to 1% DMSO control
Description: as §1, §2

[4] = target: S. aureus AgrC in group-IV (Staphylococcus aureus, UniProt Q309Z2); experiment: AgrC inhibition YFP reporter gene assay, S. aureus group-IV (AH1872); format: cell-based; conditions: for AgrC activity, preliminary screening: 10 μM where stated, YFP fluorescence relative to 1% DMSO control
Description: as §1, §2

Solubility in water = format: physicochemical
[5] = read-out: IC50 Group-I, Table 3, against S. aureus AgrC
[6] = read-out: IC50 Group-II, Table 3, against S. aureus AgrC
[7] = read-out: IC50 Group-III, Table 3, against S. aureus AgrC
[8] = read-out: IC50 Group-IV, Table 3, against S. aureus AgrC
[9] = read-out: Group-I IC50, 95% CI, YFP reporter strain, 24 h, value (95% CI)
[10] = read-out: Group-II IC50, 95% CI, YFP reporter strain, 24 h, value (95% CI)
[11] = read-out: Group-III IC50, 95% CI, YFP reporter strain, 24 h, value (95% CI)
[12] = read-out: Group-IV IC50, 95% CI, YFP reporter strain, 24 h, value (95% CI)

Structure (SMILES) | IC50 [1, 5] [nM] | IC50 [2, 6] [nM] | IC50 [3, 7] [nM] | IC50 [4, 8] [nM] | AgrC activity, preliminary screening ([1]; group-I) | IC50 [1, 9] [nM] | AgrC activity, preliminary screening ([2]; group-II) | IC50 [2, 10] [nM] | AgrC activity, preliminary screening ([3]; group-III) | IC50 [3, 11] [nM] | AgrC activity, preliminary screening ([4]; group-IV) | water solubility (Solubility in water) | IC50 [4, 12] [nM] | further results
CC(=O)N[C@H]1CSC(=O)[C@H](Cc2cccc(F)c2)NC(=O)[C@H](CC2CCCCC2)NC(=O)COCCOCCNC1=O [n7OCha3fF] (Ac-C[AEEA][Cha][Phe(3-F)]; thioester 1-C) | 109 | 1380 | 35 | 597 |  |  |  |  |  |  |  |  |  | 
CC(=O)N[C@H]1CSC(=O)[C@H](Cc2cccc(Cl)c2)NC(=O)[C@H](Cc2ccccc2)NC(=O)COCCOCCNC1=O [n7OF3clF] (Ac-C[AEEA]F[Phe(3-Cl)]; thioester 1-C) | 225 | 217 | 1140 |  |  |  |  |  |  |  |  |  |  | 
CC(=O)N[C@H]1CSC(=O)[C@H](Cc2ccccc2)NC(=O)[C@H](CC2CCCCC2)NC(=O)COCCOCCNC1=O [n7OChaF] (Ac-C[AEEA][Cha]F; thioester 1-C) | 998 | 790 | 205 | 1080 |  |  |  |  |  |  |  |  |  | 
CC(=O)N[C@H]1CSC(=O)[C@H](Cc2ccc(Cl)cc2)NC(=O)[C@H](Cc2ccccc2)NC(=O)COCCOCCNC1=O [n7OF4clF] (Ac-C[AEEA]F[Phe(4-Cl)]; thioester 1-C) | 2590 | 113 | 2480 | > 5000 |  |  |  |  |  |  |  |  |  | 
CC(=O)N[C@H]1CNC(=O)[C@H](Cc2ccccc2)NC(=O)[C@H](Cc2ccccc2)NC(=O)CCCCCCCCNC1=O [n8FF amide] |  |  |  |  | far less active | 4740 | minimal levels | 1340 | minimal levels | 2610 | virtually no inhibition | markedly more soluble in water than their parent thiolactones |  | 
CC(=O)N[C@H]1CSC(=O)[C@H](Cc2ccccc2)NC(=O)[C@H](Cc2ccccc2)NC(=O)CCCCCCCNC1=O [n7FF] (Ac-C[Aoc]FF; thioester 1-C) |  |  |  |  | minimal levels | 340 | minimal levels | 495 | minimal levels | 34.8 | minimal levels | relatively low water solubilities; also recorded: less soluble than AIP-III D4A in water | 985 | IC50 relative to that of t-AIP-II ([1]; group-I): 3-7 fold; IC50 relative to that of t-AIP-II ([2]; group-II): 3-7 fold; IC50 relative to that of t-AIP-II ([3]; group-III): 3-7 fold; IC50 relative to that of t-AIP-II ([4]; group-IV): 3-7 fold
CC(=O)N[C@H]1CSC(=O)[C@H](Cc2cccc(F)c2)NC(=O)[C@H](Cc2ccccc2)NC(=O)COCCOCCNC1=O [n7OF3fF] (Ac-C[AEEA]F[Phe(3-F)]; thioester 1-C) | 40 | 1210 | 171 | > 5000 |  |  |  |  |  |  |  |  |  | 
CC(=O)NC1CNC(=O)C(Cc2ccccc2)NC(=O)C(Cc2ccccc2)NC(=O)CCCCCCCNC1=O (stereo not shown) [n7FF amide] (Ac-[Dap][Aoc]FF; lactam 1-C; configuration not given here) |  |  |  |  | far less active | 3940 | minimal levels | 2200 | minimal levels | 573 | virtually no inhibition | markedly more soluble in water than their parent thiolactones |  | 
CC(=O)N[C@H]1CSC(=O)[C@H](Cc2ccccc2)NC(=O)[C@H](Cc2ccccc2)NC(=O)COCCOCCNC1=O [n7OFF] (Ac-C[AEEA]FF; thioester 1-C) | 181 | 583 | 332 | 5940 | approximately as active as t-AIP-II, n7FF, and n8FF | 181 | approximately as active as t-AIP-II, n7FF, and n8FF | 583 | modestly active | 332 | modestly active |  | 5940 | more potent than n7FF ([1]; group-I): ~2 fold; more soluble in water than n7FF (Solubility in water): approximately 100 fold
CC(=O)NC1CSC(=O)C(Cc2ccccc2)NC(=O)C(Cc2ccccc2)NC(=O)CCCCCCCCNC1=O (stereo not shown) [n8FF] |  |  |  |  |  | 468 |  | 479 |  | 125 |  | relatively low water solubilities; also recorded: less soluble than AIP-III D4A in water | 3490 | less potent than n7FF ([3]; group-III): 4 fold; less potent than n7FF ([4]; group-IV): 4 fold
CC(=O)N[C@H]1CSC(=O)[C@H](Cc2cccc(F)c2)NC(=O)[C@H](CC2CCCCC2)NC(=O)CCCCCCCNC1=O [n7Cha3fF] (Ac-C[Aoc][Cha][Phe(3-F)]; thioester 1-C) | 429 | 2340 | 19 | 1160 |  |  |  |  |  |  |  |  |  | 
CC(=O)NC1CNC(=O)C(Cc2ccccc2)NC(=O)C(Cc2ccccc2)NC(=O)COCCOCCNC1=O (stereo not shown) [n7OFF amide] (Ac-[Dap][AEEA]FF; lactam 1-C; configuration not given here) |  |  |  |  | no significant activity | > 10000 | no significant activity | > 10000 | no significant activity | > 10000 | no significant activity | markedly more soluble in water than their parent thiolactones | > 10000 | 
